One block for each molecule: values may come before it.
Assays:
[1] = tested on: Staphylococcus aureus (S. aureus) 11540 strain; test: Standard microdilution MIC assay, S. aureus; type: cell-based
Experimental: (§1) The in vitro activity of the compounds of the present disclosure can be determined. Antimicrobial testing is typically performed to determine the minimum inhibitory concentration (MIC). Minimum inhibitory concentrations (MICs) are determined by the microdilution method in a final volume of 100 μl according to protocols outlined by The Clinical and Laboratory Standards Institute (CLSI). Performance standards for reference strains are assessed within the same experimental design to maintain quality control. See, for example, Clinical Laboratory Standards Institute: Methods for dilution antimicrobial susceptibility tests for bacteria that grow aerobically M7-A8. Approved Standard-Eighth Edition. Wayne, PA: CLSI; December 2008; and Clinical Laboratory Standards Institute: Performance Standards for Antimicrobial Susceptibility Testing M100-S20; Approved Standard-Twentieth Edition. Wayne, PA: CLSI; June 2010.
(§2) The compounds of the present disclosure were tested for antimicrobial activity. The Compounds 1-293 were run against Escherichia coli (E co/i) strain ATCC25922 and against Staphylococcus aureus (S. aureus) 11540 strain using a standard microdilution assay to determine minimum inhibitory concentrations (MICs). […] It will be recognized by one skilled in the art that the compounds can be assessed against other bacterial organisms and that the presentation of data for activity against Escherichia coli and Staphylococcus aureus are illustrative and in no way is intended to limit the scope of the present disclosure. The compounds of the present disclosure can be assayed against a range of other microorganisms depending upon the performance activity desired to be gathered. Furthermore, the “+” and “−” representation and the selection of a cutoff value of 16 micrograms/mL is also illustrative and in no way is intended to limit the scope of the present disclosure.

[2] = tested on: Escherichia coli strain ATCC25922; test: Standard microdilution MIC assay, E. coli; type: cell-based
Experimental: as §1, §2

Structure (SMILES): C[C@H](N)CCCc1cc(Cl)c(F)c(-c2cc3cn(-c4ccc(CN[C@@H](CO)CCNC(=N)CF)cc4)c(=O)nc3[nH]2)c1 [Compound 61]
MIC [1]: ≤ 16 mg/L
MIC [2]: ≤ 16 mg/L

Structure (SMILES): C=C[C@@H](CCNC(C)=N)NCc1ccc(-n2cc3cc(-c4cc(CCC[C@@H](N)CF)cc(Cl)c4F)[nH]c3nc2=O)cc1 [Compound 103]
MIC [1]: ≤ 16 mg/L
MIC [2]: ≤ 16 mg/L

Structure (SMILES): C=CC(CCNC(=N)CF)NCc1ccc(-n2cc3cc(-c4cc(CCC(C)(C)CN)cc(Cl)c4F)[nH]c3nc2=O)cc1 (centres unmarked) [Compound 27]
MIC [1]: ≤ 16 mg/L
MIC [2]: ≤ 16 mg/L

Structure (SMILES): CC(=N)NCCCN[C@H](C)c1ccc(-n2cc3cc(-c4cc(CCC[C@H](C)N)cc(Cl)c4F)[nH]c3nc2=O)cc1F [Compound 112]
MIC [1]: ≤ 16 mg/L
MIC [2]: ≤ 16 mg/L

Structure (SMILES): C=C[C@H](N)CCCc1cc(Cl)c(F)c(-c2cc3cn(-c4ccc([C@@H]5CCC[C@@H](CCNC(=N)C(Cl)(Cl)Cl)N5)c(F)c4)c(=O)nc3[nH]2)c1 [Compound 185]
MIC [1]: ≤ 16 mg/L
MIC [2]: ≤ 16 mg/L

Structure (SMILES): CSC[C@@H](CCNC(=N)CF)NCc1ccc(-n2cc3cc(-c4cc(CCC[C@H](C)N)cc(Cl)c4F)[nH]c3nc2=O)cc1 [Compound 88]
MIC [1]: ≤ 16 mg/L
MIC [2]: ≤ 16 mg/L

Structure (SMILES): CC(=N)NCC[C@@H]1CCC[C@@H](c2ccc(-n3cc4cc(-c5cc(CCC[C@@H](N)CC#N)cc(Cl)c5F)[nH]c4nc3=O)cc2)N1 [Compound 154]
MIC [1]: ≤ 16 mg/L
MIC [2]: ≤ 16 mg/L

Structure (SMILES): C=C[C@@H](N)CCCc1cc(Cl)c(F)c(-c2cc3cn(-c4ccc(CN[C@@H](C=C)CCNC(C)=N)cc4)c(=O)nc3[nH]2)c1 [Compound 30]
MIC [1]: ≤ 16 mg/L
MIC [2]: ≤ 16 mg/L

Structure (SMILES): N=C(CF)NCC[C@H](CO)NCc1ccc(-n2cc3cc(-c4cc(CCC[C@@H](N)C5CC5)cc(Cl)c4F)[nH]c3nc2=O)cc1 [Compound 85]
MIC [1]: ≤ 16 mg/L
MIC [2]: ≤ 16 mg/L

Structure (SMILES): CC(=N)NCCCN[C@@H](C)c1ccc(-n2cc3cc(-c4cc(CCCC5(N)CC5)cc(Cl)c4F)[nH]c3nc2=O)cc1F [Compound 148]
MIC [1]: ≤ 16 mg/L
MIC [2]: ≤ 16 mg/L

Structure (SMILES): CC(=N)NCC[C@@H]1CNC[C@H](c2ccc(-n3cc4cc(-c5cc(CCC[C@H](C)N)cc(Cl)c5F)[nH]c4nc3=O)cc2)N1 [Compound 45]
MIC [1]: ≤ 16 mg/L
MIC [2]: ≤ 16 mg/L

The remaining lines, values ahead:

MIC [1]: ≤ 16 mg/L
MIC [2]: ≤ 16 mg/L
Structure (SMILES): CC(=N)NCC[C@@H]1CCC[C@@H](c2ccc(-n3cc4cc(-c5cc(CCC[C@@H](N)C6CC6)cc(Cl)c5F)[nH]c4nc3=O)cc2S(C)(=O)=O)N1 [Compound 273]

MIC [1]: ≤ 16 mg/L
MIC [2]: ≤ 16 mg/L
Structure (SMILES): CN=C(C)NCC[C@@H]1CCC[C@@H](c2ccc(-n3cc4cc(-c5cc(CCC[C@H](C)N)cc(Cl)c5F)[nH]c4nc3=O)cc2)N1 [Compound 283]

MIC [1]: ≤ 16 mg/L
MIC [2]: ≤ 16 mg/L
Structure (SMILES): CC(=N)N[C@H](C)C[C@@H]1CCC[C@@H](c2ccc(-n3cc4cc(-c5cc(CCC[C@@H](N)C6CC6)cc(Cl)c5F)[nH]c4nc3=O)cc2)N1 [Compound 257]

MIC [1]: ≤ 16 mg/L
MIC [2]: ≤ 16 mg/L
Structure (SMILES): CC(=N)NCC[C@@H]1CCC[C@@H](c2ccc(-n3cc4cc(-c5cc(CCC[C@@H](N)CF)cc(C(F)(F)F)c5F)[nH]c4nc3=O)cc2OC(F)(F)F)N1 [Compound 225]

MIC [1]: ≤ 16 mg/L
MIC [2]: ≤ 16 mg/L
Structure (SMILES): COc1cc(-n2cc3cc(-c4cc(CCC[C@@H](N)CF)cc(C(F)(F)F)c4)[nH]c3nc2=O)ccc1[C@@H]1CCC[C@@H](CCNC(C)=N)N1 [Compound 209]

MIC [1]: ≤ 16 mg/L
MIC [2]: ≤ 16 mg/L
Structure (SMILES): C=C[C@H](N)CCCc1cc(Cl)c(F)c(-c2cc3cn(-c4cc(F)c([C@@H]5CCC[C@@H](CCNC(C)=N)N5)c(F)c4)c(=O)nc3[nH]2)c1 [Compound 246]

MIC [1]: ≤ 16 mg/L
MIC [2]: ≤ 16 mg/L
Structure (SMILES): CC(=N)NCC[C@@H](NCc1ccc(-n2cc3cc(-c4cc(CCC[C@@H](N)CF)cc(Cl)c4F)[nH]c3nc2=O)cc1)C1CC1 [Compound 218]

MIC [1]: ≤ 16 mg/L
MIC [2]: ≤ 16 mg/L
Structure (SMILES): CSc1cc(-n2cc3cc(-c4cc(CCC[C@@H](N)C5CC5)cc(C(F)(F)F)c4)[nH]c3nc2=O)cc(F)c1[C@@H]1CCC[C@@H](CCNC(C)=N)N1CCCF [Compound 337]

MIC [1]: ≤ 16 mg/L
MIC [2]: ≤ 16 mg/L
Structure (SMILES): CSc1cc(-n2cc3cc(-c4cc(CCC[C@@H](N)CF)cc(C(F)(F)F)c4)[nH]c3nc2=O)ccc1[C@@H]1CCC[C@@H](CCNC(C)=N)N1 [Compound 203]

MIC [1]: ≤ 16 mg/L
MIC [2]: ≤ 16 mg/L
Structure (SMILES): CC(=N)NCC[C@@H]1CCC[C@@H](c2ccc(-n3cc4cc(-c5ccc(C(F)(F)F)c(CCC[C@H](C)N)c5)[nH]c4nc3=O)cc2)N1 [Compound 287]

MIC [1]: ≤ 16 mg/L
MIC [2]: ≤ 16 mg/L
Structure (SMILES): CC(=N)NCC[C@@H]1CCC[C@@H](c2ccc(-n3cc4cc(-c5cc(CCC[C@H](C)N)cc(Cl)c5F)[nH]c4nc3=O)cc2C)N1 [Compound 232]
